US9278962B2 (Cytokinetics, Inc., priority 2011, dated 2016)
Each block holds one compound with its values, some of them ahead of it.

Test system: rabbit skeletal myofibrils (approximately 90% fast fibers)
Assay: Activation of fast skeletal myofibrils (PUMA coupled-enzyme ATPase assay, AC1.4)
Assay type: biochemical
Settings: concentration at which the compound increased enzymatic activity by 40%, calcium at pCa25
Method: Rabbit skeletal myofibrils were prepared based upon the method of Herrmann et al. (Biochem. 32(28):7255-7263(1993). Myofibrils were prepared from rabbit psoas muscle purchased from Pel-Freez Biologicals (Arkansas) within 2 days of ordering, stored on ice. Minced muscle was homogenized in 10 volumes of ice-cold “standard” buffer (50 mM Tris, pH 7.4, 0.1 M potassium acetate, 5 mM KCl, 2 mM DTT, 0.2 mM PMSF, 10 μM leupeptin, 5 μM pepstatin, and 0.5 mM sodium azide) containing 5 mM EDTA and 0.5% Triton X-100 using an Omni-Macro homogenizer. Myofibrils were recovered by low speed centrifugation (3000 rpm for 10 minutes) and washed 2 times in the Triton X-100 containing buffer to ensure removal of cellular membrane. Following the Triton washes, myofibrils were washed 3 times in “standard” buffer containing 2 mM magnesium acetate. A final wash in assay buffer (12 mM PIPES, pH 6.8, 60 mM KCl, 1 mM DTT) was performed and brought to 10% sucrose for flash freezing in liquid nitrogen and storage at −80° C.
Fast fiber activators were identified by measuring the enzymatic activity of muscle myofibril preparations using the proprietary PUMA™ (see, e.g., U.S. Pat. Nos. 6,410,254, 6,743,599, 7,202,051, and 7,378,254) assay system. Myofibril preparations consisted of rabbit skeletal muscle (approximately 90% fast fibers) that had been mechanically homogenized and washed with a detergent (triton X-100) to remove cellular membranes. This preparation retained all of the sarcomeric components in a native conformation and the enzymatic activity was still regulated by calcium. Compounds were tested using a myofibril suspension and a level of calcium sufficient to increase enzymatic activity of the myofibrils to 25% of their maximal rate (termed pCa25). Enzymatic activity was tracked via a pyruvate kinase and lactate dehydrogenase-coupled enzyme system. This assay regenerates myosin-produced ADP into ATP by oxidizing NADH, producing an absorbance change at 340 nm. The buffering system was 12 mM Pipes, 2 mM MgCl2, 1 mM DTT at pH 6.8 (PM12 buffer).
Using procedures similar to those described herein, utilizing reagents and intermediates commercially available (e.g., Sigma-Aldrich) or readily synthesized by one of skill in the art, the compounds in Table 2, Table 3, Table 4 and Table 5 were synthesized, characterized and tested. AC1.4 values were determined according to the procedure described in Example 6, and the reported median AC1.4 values are as follows: A=<1 uM; B=1-10 uM; C=10-20 uM; D=>20 uM.

Structure (SMILES): Clc1ccc(CCNc2nc(Cc3ccc(Cl)cc3)ns2)cc1 [[2-(4-chlorophenyl)ethyl]{3-[(4-chlorophenyl)methyl](1,2,4-thiadiazol-5-yl)}amine]
- Mean AC1.4 (Table 2): C (C=10-20 uM)

Structure (SMILES): CCc1nsc(NCC(C)(C)c2ccc(F)cc2)n1 [(3-ethyl(1,2,4-thiadiazol-5-yl))[2-(4-fluorophenyl)-2-methylpropyl]amine]
- Mean AC1.4 (Table 2): B (B=1-10 uM)

Structure (SMILES): COc1cccc(Cc2nsc(NCCc3ccc(S(N)(=O)=O)cc3)n2)c1 [4-[2-({3-[(3-methoxyphenyl)methyl]-1,2,4-thiadiazol-5-yl}amino)ethyl]benzenesulfonamide]
- Mean AC1.4 (Table 2): D (D=>20 uM)

Structure (SMILES): CC(C)(CNc1nc(-c2ccc(C(N)=O)c(F)c2)ns1)c1ccc(F)cc1 [2-fluoro-4-(5-{[2-(4-fluorophenyl)-2-methylpropyl]amino}(1,2,4-thiadiazol-3-yl))benzamide]
- Mean AC1.4 (Table 2): A (A=<1 uM)

Structure (SMILES): N#Cc1ccc2nc(NCC3(c4ccc(F)cc4)CCC3)sc2c1 [2-((1-(4-fluorophenyl)cyclobutyl)methylamino) benzo[d]thiazole-6-carbonitrile]
- Mean AC1.4 (Table 4): A (A=<1 uM)

Structure (SMILES): COc1ccc(C2(CNc3nc4ccc(C(N)=O)cc4s3)CCC2)nc1 [2-((1-(5-methoxypyridin-2-yl)cyclobutyl)methylamino)benzo[d] thiazole-6-carboxamide]
- Mean AC1.4 (Table 4): C (C=10-20 uM)

Structure (SMILES): NC(=O)c1cccc2sc(NC[C@]3(c4ncccc4F)C[C@H](F)C3)nc12
- Mean AC1.4 (Table 4): D (D=>20 uM)

Structure (SMILES): CC(C)(CNc1nc2ccc(C(=O)O)cc2s1)c1ccc(F)cc1 [2-(2-(4-fluorophenyl)-2-methylpropylamino)benzo-6-carboxylic acid]
- Mean AC1.4 (Table 4): C (C=10-20 uM)

Structure (SMILES): CC(C)(CNc1nc(CCN2CC[C@@H](O)C2)ns1)c1ccc(F)cc1 [(3R)-1-[2-(5-{[2-(4-fluorophenyl)-2-methylpropyl]amino}(1,2,4-thiadiazol-3-yl))ethyl]pyrrolidin-3-ol]
- Mean AC1.4 (Table 2): C (C=10-20 uM)

Structure (SMILES): CC(C)(CNc1nc(CN2CCN(S(C)(=O)=O)CC2)ns1)c1ccc(F)cc1 [1-[(5-{[2-(4-fluorophenyl)-2-methylpropyl]amino}(1,2,4-thiadiazol-3-yl))methyl]-4-(methylsulfonyl)piperazine]
- Mean AC1.4 (Table 2): C (C=10-20 uM)

Structure (SMILES): CC(C)(CNc1nc(CC(O)CO)ns1)c1ccc(F)cc1 (centres unmarked) [3-(5-{[2-(4-fluorophenyl)-2-methylpropyl]amino}-1,2,4-thiadiazol-3-yl)propane-1,2-diol]
- Mean AC1.4 (Table 2): B (B=1-10 uM)

Structure (SMILES): CC(C)(CNc1nc(CCN2CCCCC2)ns1)c1ccc(F)cc1 [[2-(4-fluorophenyl)-2-methylpropyl][3-(2-piperidylethyl)(1,2,4-thiadiazol-5-yl)]amine]
- Mean AC1.4 (Table 2): D (D=>20 uM)

Structure (SMILES): CC(C)(CNc1nc2cccc(Cl)c2s1)c1ccc(F)cc1 [7-chloro-N-(2-(4-fluorophenyl)-2-methylpropyl)benzo[d]thiazol-2-amine]
- Mean AC1.4 (Table 4): B (B=1-10 uM)

Structure (SMILES): Fc1cccnc1C1(CNc2cnn(-c3ccccc3)c2)CCC1 [N-((1-(3-fluoropyridin-2-yl)cyclobutyl)methyl)-1-phenyl-1H-pyrazol-4-amine]
- Mean AC1.4 (Table 5): D (D=>20 uM)

Structure (SMILES): CC(C)(CNc1nc(-c2ccc3c(N)n[nH]c3c2)ns1)c1ccc(F)cc1 [[3-(3-amino(1H-indazol-6-yl))(1,2,4-thiadiazol-5-yl)][2-(4-fluorophenyl)-2-methylpropyl]amine]
- Mean AC1.4 (Table 2): A (A=<1 uM)

Structure (SMILES): CC(C)(CNc1nc(CCC(=O)N2CCCC2)ns1)c1ccc(F)cc1 [3-(5-{[2-(4-fluorophenyl)-2-methylpropyl]amino}(1,2,4-thiadiazol-3-yl))-1-pyrrolidinylpropan-1-one]
- Mean AC1.4 (Table 2): C (C=10-20 uM)

Structure (SMILES): Cc1ccc(C(N)=O)cc1-c1nnc(NC[C@]2(c3ncccc3F)C[C@H](F)C2)s1 [3-(5-((3-fluoro-1-(3-fluoropyridin-2-yl)cyclobutyl)methylamino)-1,3,4-thiadiazol-2-yl)-4-methylbenzamide]
- Mean AC1.4 (Table 3): A (A=<1 uM)

Structure (SMILES): CC(C)(CNc1nc(-c2cn[nH]c2)ns1)c1ccc(F)cc1 [[2-(4-fluorophenyl)-2-methylpropyl](3-pyrazol-4-yl(1,2,4-thiadiazol-5-yl))amine]
- Mean AC1.4 (Table 2): B (B=1-10 uM)

Structure (SMILES): Cc1ccc(-c2nnc(NC[C@]3(c4ncccc4F)C[C@H](F)C3)s2)s1 [N-(((trans)-3-fluoro-1-(3-fluoropyridin-2-yl)cyclobutyl)methyl)-5-(5-methylthiophen-2-yl)-1,3,4-thiadiazol-2-amine]
- Mean AC1.4 (Table 3): B (B=1-10 uM)

Structure (SMILES): Cc1cc(C(N)=O)sc1-c1nnc(NC[C@]2(c3ncccc3F)C[C@H](F)C2)s1 [5-(5-((3-fluoro-1-(3-fluoropyridin-2-yl)cyclobutyl)methylamino)-1,3,4-thiadiazol-2-yl)-4-methylthiophene-2-carboxamide]
- Mean AC1.4 (Table 3): B (B=1-10 uM)

Structure (SMILES): COc1cncc(-c2nsc(NCC(C)(C)c3ccc(F)cc3)n2)c1 [[2-(4-fluorophenyl)-2-methylpropyl][3-(5-methoxy(3-pyridyl))(1,2,4-thiadiazol-5-yl)]amine]
- Mean AC1.4 (Table 2): B (B=1-10 uM)

Other lines, results leading:

- Mean AC1.4 (Table 2): B (B=1-10 uM)
Structure (SMILES): CC(C)(CNc1nc(-c2cccc(CO)c2)ns1)c1ccc(F)cc1 [[3-(5-{[2-(4-fluorophenyl)-2-methylpropyl]amino}-1,2,4-thiadiazol-3-yl)phenyl]methan-1-ol]

- Mean AC1.4 (Table 2): D (D=>20 uM)
Structure (SMILES): CC(C)(CNc1nc(CCN2CCC(O)CC2)ns1)c1ccc(F)cc1 [1-[2-(5-{[2-(4-fluorophenyl)-2-methylpropyl]amino}-1,2,4-thiadiazol-3-yl)ethyl]piperidin-4-ol]

- Mean AC1.4 (Table 2): B (B=1-10 uM)
Structure (SMILES): C[C@H](CNc1nc(-c2ccc(O)nc2)ns1)c1ccc(F)cc1 [5-(5-{[(2S)-2-(4-fluorophenyl)propyl]amino}-1,2,4-thiadiazol-3-yl)pyridin-2-ol]

- Mean AC1.4 (Table 4): A (A=<1 uM)
Structure (SMILES): NC(=O)c1cc(Cl)c2nc(NCC3(c4ncccc4F)CCC3)sc2c1 [4-chloro-2-((1-(3-fluoropyridin-2-yl)cyclobutyl)methylamino)benzo[d] thiazole-6-carboxamide]

- Mean AC1.4 (Table 4): B (B=1-10 uM)
Structure (SMILES): NC(=O)c1ccc2nc(NCCc3ccc(F)cc3)sc2c1 [2-(4-fluorophenethylamino)benzo[d] thiazole-6-carboxamide]

- Mean AC1.4 (Table 3): B (B=1-10 uM)
Structure (SMILES): Cc1cc(Br)sc1-c1nnc(NC[C@]2(c3ncccc3F)C[C@H](F)C2)s1 [5-(5-bromo-3-methylthiophen-2-yl)-N-((3-fluoro-1-(3-fluoropyridin-2-yl)cyclobutyl)methyl)-1,3,4-thiadiazol-2-amine]

- Mean AC1.4 (Table 2): D (D=>20 uM)
Structure (SMILES): CN(C)CCN(C)c1nsc(NCC(C)(C)c2ccc(F)cc2)n1 [[2-(dimethylamino)ethyl](5-{[2-(4-fluorophenyl)-2-methylpropyl]amino}(1,2,4-thiadiazol-3-yl))methylamine]

- Mean AC1.4 (Table 3): B (B=1-10 uM)
Structure (SMILES): Fc1cccnc1C1(CNc2nnc(-c3cccs3)s2)CCC1 [N-((1-(3-fluoropyridin-2-yl)cyclobutyl)methyl)-5-(thiophen-2-yl)-1,3,4-thiadiazol-2-amine]

- Mean AC1.4 (Table 3): A (A=<1 uM)
Structure (SMILES): Cc1ccc(Br)cc1-c1nnc(NC[C@]2(c3ncccc3F)C[C@@H](F)C2)s1 [5-(5-bromo-2-methylphenyl)-N-(((cis)-3-fluoro-1-(3-fluoropyridin-2-yl)cyclobutyl)methyl)-1,3,4-thiadiazol-2-amine]

- Mean AC1.4 (Table 5): D (D=>20 uM)
Structure (SMILES): Cn1nc(NC2(c3ncccc3F)CCC2)nc1-c1cc(C(N)=O)ccc1F [4-fluoro-3-(5-(1-(3-fluoropyridin-2-yl)cyclobutylamino)-2-methyl-2H-1,2,4-triazol-3-yl)benzamide]

- Mean AC1.4 (Table 4): B (B=1-10 uM)
Structure (SMILES): NC(=O)c1ccc(Cl)c2nc(NC[C@]3(c4ncccc4F)C[C@H](F)C3)sc12 [4-chloro-2-((3-fluoro-1-(3-fluoropyridin-2-yl)cyclobutyl)methylamino)benzo[d] thiazole-7-carboxamide]

- Mean AC1.4 (Table 3): B (B=1-10 uM)
Structure (SMILES): Fc1cccnc1C1(CNc2nnc(-c3ccc(Br)cc3)s2)CCC1 [5-(4-bromophenyl)-N-((1-(3-fluoropyridin-2-yl)cyclobutyl)methyl)-1,3,4-thiadiazol-2-amine]

- Mean AC1.4 (Table 4): C (C=10-20 uM)
Structure (SMILES): N#Cc1ccc2sc(NC[C@]3(c4ncccc4F)C[C@H](F)C3)nc2c1 [2-((3-fluoro-1-(3-fluoropyridin-2-yl)cyclobutyl)methylamino)benzo[d] thiazole-5-carbonitrile]

- Mean AC1.4 (Table 4): A (A=<1 uM)
Structure (SMILES): CC(C)(CNc1nc2ccc(Cl)cc2s1)c1ccc(F)cc1 [6-chloro-N-(2-(4-fluorophenyl)-2-methylpropyl)benzo[d]thiazol-2-amine]
